Values after ≈ are worked out from the molar mass of the structure shown.

In test [1] the test system is Staphylococcus aureus A15090. In words: MIC, broth micro dilution assay (NCCLS). To be noted: Staphylococcus aureus, A15090, 18 h, read-out: MIC (μg/mL) against Staphylococcus aureus A15090. Type of test: cell-based.
For test [2], the system named is Streptococcus pneumoniae A28272. Briefly: MIC, broth micro dilution assay (NCCLS). It counts as cell-based. To be noted: Streptococcus pneumoniae, A28272, 18 h, read-out: MIC (μg/mL) against Streptococcus pneumoniae A28272.
In test [3] the test system is Enterococcus faecalis A20688. In words: MIC, broth micro dilution assay (NCCLS). It counts as cell-based. To be noted: Enterococcus faecalis, A20688, 18 h, read-out: MIC (μg/mL) against Enterococcus faecalis A20688.
In test [4] the test system is Staphylococcus aureus A15090. In words: animal or person. Type of test: in vivo, female ICR mice. To be noted: A15090, in Mus musculus, iv, 1 h, read-out: PD50 (dose which protects 50% of mice from mortality).

For `CO/C(C)=C1/NC(=O)C(C(C)O)NC(=O)c2csc(n2)-c2cc(O)c(-c3nc(C(=O)NC(CN(C)CCO)C(N)=O)cs3)nc2-c2csc(n2)C2COC(=O)c3c4c5c(cccc5n3O)COC(=O)C(O[C@H]3C[C@](C)(O)[C@H](N(C)C)[C@H](C)O3)C(OC4)C(NC(=O)c3csc1n3)c1nc(cs1)C(=O)N2` (some centres unmarked) [Example 2], the MIC in test [1] worked out at 0.015 µg/mL (≈ 0.00992 µM); in test [2], 0.015 µg/mL (≈ 0.00992 µM); in test [3] it was 0.06 µg/mL (≈ 0.0397 µM). In test [4], the ED50 was 0.19 to 7.3 mg/kg.
`CO/C(C)=C1/NC(=O)C(C(C)O)NC(=O)c2csc(n2)-c2cc(O)c(-c3nc(C(=O)NC(CN4CCN(C)CC4)C(N)=O)cs3)nc2-c2csc(n2)C2COC(=O)c3c4c5c(cccc5n3O)COC(=O)C(O[C@H]3C[C@](C)(O)[C@H](N(C)C)[C@H](C)O3)C(OC4)C(NC(=O)c3csc1n3)c1nc(cs1)C(=O)N2` (some centres unmarked) [Example 1]: the MIC in test [1] turned out to be 0.25 µg/mL (≈ 0.163 µM); in test [2], 0.125 µg/mL (≈ 0.0813 µM); in test [3] it was 0.5 µg/mL (≈ 0.325 µM). In test [4], the ED50 was in the range of 0.19 to 7.3 mg/kg.

Source of the values: patent US20020065219A1, “Water soluble thiazolyl peptide derivatives” (priority 2000, published 2002).
